Experimental data from patent publication US10351718B2, “Optical filter and imaging device” (AGC Inc., priority 2015, dated 2019).

Assay: Absorption characteristic of the dye in dichloromethane
Assay type: physicochemical
Conditions: for λ80 (wavelength with 80% transmittance on shorter wavelength side of λmax) / λmax − λ80: dichloromethane, transmittance at λmax set to 10%; for εA (maximum absorption coefficient in a wavelength of 430 to 550 nm) / εB (maximum absorption coefficient in a wavelength of 670 to 730 nm) / εB/εA / λmax (maximum absorption wavelength): dissolved in dichloromethane
Method: The dyes obtained above were each dissolved in dichloromethane, and using an ultraviolet-visible spectrophotometer (made by Hitachi High Technologies Co., Ltd., U-4100 type), each spectral transmittance curve was measured, from which a maximum absorption wavelength λmax, a wavelength λ80 with which the transmittance becomes 80% on a shorter wavelength side than the maximum absorption wavelength with the transmittance at the maximum absorption wavelength set to 10%, the difference between the maximum absorption wavelength λmax and the wavelength λ80 (λmax−λ80), a maximum absorption coefficient εA in a wavelength of 430 to 550 nm, a maximum absorption coefficient εB in a wavelength of 670 to 730 nm, and a ratio of these (εB/εA) were calculated. Note that measurement of the dye (A9) was not performed because its solubility was low. Further, for each of the following spectral transmittance curves, an ultraviolet-visible spectrophotometer (made by Hitachi High Technologies Co., Ltd., U-4100 type) was used.

SMILES	λ80 (wavelength with 80% transmittance on shorter wavelength side of λmax) [nm]	λmax − λ80 [nm]	εA (maximum absorption coefficient in a wavelength of 430 to 550 nm)	εB (maximum absorption coefficient in a wavelength of 670 to 730 nm)	εB/εA	λmax (maximum absorption wavelength) [nm]
CC(C)N1c2cc(NS(=O)(=O)c3ccc(F)cc3)c(C3=C([O-])C(=c4cc5c(cc4NS(=O)(=O)c4ccc(F)cc4)=[N+](C(C)C)C(C)C5(C)C)C3=O)cc2C(C)(C)C1C (stereo not drawn) [Dye A1-11]	648	52	0.0110	1	90.9	700
CC1N(C)c2cc(NS(=O)(=O)C(F)(F)C(F)(F)C(F)(F)C(F)(F)F)c(C3=C([O-])C(=c4cc5c(cc4NS(=O)(=O)C(F)(F)C(F)(F)C(F)(F)C(F)(F)F)=[N+](C)C(C)C5(C)C)C3=O)cc2C1(C)C (stereo not drawn) [Dye A1-3]	637	61	0.0065	1	154	698
CCCCCc1ccc(S(=O)(=O)Nc2cc3c(cc2C2=C([O-])C(=c4cc5c(cc4NS(=O)(=O)c4ccc(CCCCC)cc4)=[N+](C)C(C)C5(C)C)C2=O)C(C)(C)C(C)N3C)cc1 (stereo not drawn) [Dye A1-7]	633	60	0.0147	1	68.0	693
CC1N(C)c2cc(NS(=O)(=O)c3ccccc3C(F)(F)F)c(C3=C([O-])C(=c4cc5c(cc4NS(=O)(=O)c4ccccc4C(F)(F)F)=[N+](C)C(C)C5(C)C)C3=O)cc2C1(C)C (stereo not drawn) [Dye A1-4]	633	62	0.0104	1	96.2	695
CCCc1ccc(S(=O)(=O)Nc2cc3c(cc2C2=C([O-])C(=c4cc5c(cc4NS(=O)(=O)c4ccc(CCC)cc4)=[N+](C)C(C)C5(C)C)C2=O)C(C)(C)C(C)N3C)cc1 (stereo not drawn) [Dye A1-6]	633	60	0.0139	1	71.9	693
CCCS(=O)(=O)Nc1cc2c(cc1C1=C([O-])C(=c3cc4c(cc3NS(=O)(=O)CCC)=[N+](C(C)C)C(C)C4(C)C)C1=O)C(C)(C)C(C)N2C(C)C (stereo not drawn) [Dye A1-13]	645	53	0.0113	1	88.5	698
Cc1ccc(S(=O)(=O)Nc2cc3c(cc2C2=C([O-])C(=c4cc5c(cc4NS(=O)(=O)c4ccc(C)cc4)=[N+](C(C)C)C(C)C5(C)C)C2=O)C(C)(C)C(C)N3C(C)C)cc1 (stereo not drawn) [Dye A1-12]	648	52	0.0116	1	86.2	700
CCCc1ccc(S(=O)(=O)Nc2cc3c(cc2C2=C([O-])C(=c4cc5c(cc4NS(=O)(=O)c4ccc(CCC)cc4)=[N+](C(C)C)C(C)C5(C)C)C2=O)C(C)(C)C(C)N3C(C)C)cc1 (stereo not drawn) [Dye A1-14]	647	52	0.0121	1	82.6	699

The next lines start with the values.

λ80 (wavelength with 80% transmittance on shorter wavelength side of λmax) [nm]	λmax − λ80 [nm]	εA (maximum absorption coefficient in a wavelength of 430 to 550 nm)	εB (maximum absorption coefficient in a wavelength of 670 to 730 nm)	εB/εA	λmax (maximum absorption wavelength) [nm]	SMILES
660	51	0.0122	1	82.0	711	CCC(C)(C)N1c2cc(NS(=O)(=O)C(F)(F)F)c(C3=C([O-])C(=c4cc5c(cc4NS(=O)(=O)C(F)(F)F)=[N+](C(C)(C)CC)C(C)C5(C)C)C3=O)cc2C(C)(C)C1C (stereo not drawn) [Dye A1-22]
663	50	0.0124	1	80.6	713	CCC(C)(C)N1c2cc(NS(=O)(=O)C(F)(F)C(F)(F)C(F)(F)C(F)(F)F)c(C3=C([O-])C(=c4cc5c(cc4NS(=O)(=O)C(F)(F)C(F)(F)C(F)(F)C(F)(F)F)=[N+](C(C)(C)CC)C(C)C5(C)C)C3=O)cc2C(C)(C)C1C (stereo not drawn) [Dye A1-23]
651	52	0.0100	1	100	703	CC(C)N1c2cc(N3S(=O)(=O)C(F)(F)C(F)(F)S3(=O)=O)c(C3=C([O-])C(=c4cc5c(cc4N4S(=O)(=O)C(F)(F)C(F)(F)S4(=O)=O)=[N+](C(C)C)C(C)C5(C)C)C3=O)cc2C(C)(C)C1C (stereo not drawn) [Dye A1-20]
649	50	0.0110	1	90.9	699	Cc1ccccc1S(=O)(=O)Nc1cc2c(cc1C1=C([O-])C(=c3cc4c(cc3NS(=O)(=O)c3ccccc3C)=[N+](C(C)C)C(C)C4(C)C)C1=O)C(C)(C)C(C)N2C(C)C (stereo not drawn) [Dye A1-18]
653	52	0.0081	1	123	705	CC(C)N1c2cc(NS(=O)(=O)C(F)(F)C(F)(F)C(F)(F)C(F)(F)F)c(C3=C([O-])C(=c4cc5c(cc4NS(=O)(=O)C(F)(F)C(F)(F)C(F)(F)C(F)(F)F)=[N+](C(C)C)C(C)C5(C)C)C3=O)cc2C(C)(C)C1C (stereo not drawn) [Dye A1-17]
648	51	0.0126	1	79.4	699	CCCCCc1ccc(S(=O)(=O)Nc2cc3c(cc2C2=C([O-])C(=c4cc5c(cc4NS(=O)(=O)c4ccc(CCCCC)cc4)=[N+](C(C)C)C(C)C5(C)C)C2=O)C(C)(C)C(C)N3C(C)C)cc1 (stereo not drawn) [Dye A1-19]
654	53	0.0140	1	71.6	707	CCCCCCCCS(=O)(=O)Nc1cc2c(cc1C1=C([O-])C(=c3cc4c(cc3NS(=O)(=O)CCCCCCCC)=[N+](C(C)C)C(C)(C(C)C)C4(C)C)C1=O)C(C)(C)C(C)(C(C)C)N2C(C)C (stereo not drawn) [Dye A1-26]
653	51	0.0130	1	77.6	704	CCCCCCCCS(=O)(=O)Nc1cc2c(cc1C1=C([O-])C(=c3cc4c(cc3NS(=O)(=O)CCCCCCCC)=[N+](C(C)C)C(C)(CC)C4(C)C)C1=O)C(C)(C)C(C)(CC)N2C(C)C (stereo not drawn) [Dye A1-25]
651	49	0.0110	1	89.7	700	CCCCCCCCS(=O)(=O)Nc1cc2c(cc1C1=C([O-])C(=c3cc4c(cc3NS(=O)(=O)CCCCCCCC)=[N+](C(C)C)C(C)(C)C4(C)C)C1=O)C(C)(C)C(C)(C)N2C(C)C [Dye A1-24]
